ChEMBL document CHEMBL1909046, “DrugMatrix in vitro pharmacology data”

What was measured:
Thromboxane-A synthase = target: T1, Thromboxane-A synthase (Homo sapiens, UniProt P24557); experiment: biochemical; assay type: tissue-based, Platelet; conditions: platelet;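 also: enzyme inhibition assay with PGH2 supplied as substrate; in other assays of this panel Not Active means under 50% inhibition at 10 µM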
T1 sequence (P24557 whole entry): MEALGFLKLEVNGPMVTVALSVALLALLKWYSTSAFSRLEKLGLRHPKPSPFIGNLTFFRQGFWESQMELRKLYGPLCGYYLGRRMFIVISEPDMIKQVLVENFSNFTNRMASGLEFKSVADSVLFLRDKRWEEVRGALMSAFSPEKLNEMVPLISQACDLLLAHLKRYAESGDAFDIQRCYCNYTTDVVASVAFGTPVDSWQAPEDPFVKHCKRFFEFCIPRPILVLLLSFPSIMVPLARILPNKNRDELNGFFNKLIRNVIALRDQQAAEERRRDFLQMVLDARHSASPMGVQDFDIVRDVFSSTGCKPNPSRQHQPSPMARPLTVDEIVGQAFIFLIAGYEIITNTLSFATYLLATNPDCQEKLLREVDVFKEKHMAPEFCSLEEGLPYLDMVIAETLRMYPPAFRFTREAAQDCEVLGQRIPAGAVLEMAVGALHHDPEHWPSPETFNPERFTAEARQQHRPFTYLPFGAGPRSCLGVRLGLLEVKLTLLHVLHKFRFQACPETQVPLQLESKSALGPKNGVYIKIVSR

[1] = DRUGMATRIX: GABAA, Chloride Channel, TBOB radioligand binding (ligand: [3H] TBOB); assay type: cell membranes, Rattus norvegicus, Wistar, Cerebral cortex, Membrane; conditions: Not Active = under 50% inhibition at 10 µM
[2] = DRUGMATRIX: Potassium Channel [KATP] radioligand binding (ligand: [3H] Glyburide); assay type: cell membranes, Membrane; conditions: hit-t15; Not Active = under 50% inhibition at 10 µM
[3] = target: Kappa-type opioid receptor (Homo sapiens, UniProt P41145); experiment: DRUGMATRIX: Opiate kappa (OP2, KOP) radioligand binding (ligand: [3H] Diprenorphine); assay type: cell membranes, HEK293, Membrane; conditions: hek293; Not Active = under 50% inhibition at 10 µM
Sequence of Kappa-type opioid receptor (P41145 whole entry): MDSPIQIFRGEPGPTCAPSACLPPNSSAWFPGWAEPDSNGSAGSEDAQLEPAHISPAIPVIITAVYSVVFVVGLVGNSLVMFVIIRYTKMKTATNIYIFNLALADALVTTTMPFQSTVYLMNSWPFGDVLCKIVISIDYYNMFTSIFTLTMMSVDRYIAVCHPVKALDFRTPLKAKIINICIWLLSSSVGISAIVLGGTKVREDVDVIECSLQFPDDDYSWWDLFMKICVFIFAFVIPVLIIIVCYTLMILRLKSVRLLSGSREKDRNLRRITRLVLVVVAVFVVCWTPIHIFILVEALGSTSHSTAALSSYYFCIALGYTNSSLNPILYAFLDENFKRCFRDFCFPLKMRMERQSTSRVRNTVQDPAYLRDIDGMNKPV

[4] = DRUGMATRIX: Glutamate, NMDA, Phencyclidine radioligand binding (ligand: [3H] TCP); assay type: cell membranes, Rattus norvegicus, Wistar, Cerebral cortex, Membrane; conditions: Not Active = under 50% inhibition at 10 µM
[5] = DRUGMATRIX: Platelet-Derived Growth Factor (PDGF) radioligand binding (ligand: [125I] PDGF); assay type: cell-based; conditions: nih3t3; Not Active = under 50% inhibition at 10 µM
[6] = DRUGMATRIX: Glutamate, Kainate radioligand binding (ligand: [3H] Kainic acid); assay type: cell membranes, Rattus norvegicus, Wistar, Brain, Membrane; conditions: Not Active = under 50% inhibition at 10 µM
[7] = target: Beta-2 adrenergic receptor (Homo sapiens, UniProt P07550); experiment: DRUGMATRIX: Adrenergic beta2 radioligand binding (ligand: [3H] CGP-12177); assay type: cell membranes, Membrane; conditions: cho; Not Active = under 50% inhibition at 10 µM
Sequence of Beta-2 adrenergic receptor (P07550 whole entry): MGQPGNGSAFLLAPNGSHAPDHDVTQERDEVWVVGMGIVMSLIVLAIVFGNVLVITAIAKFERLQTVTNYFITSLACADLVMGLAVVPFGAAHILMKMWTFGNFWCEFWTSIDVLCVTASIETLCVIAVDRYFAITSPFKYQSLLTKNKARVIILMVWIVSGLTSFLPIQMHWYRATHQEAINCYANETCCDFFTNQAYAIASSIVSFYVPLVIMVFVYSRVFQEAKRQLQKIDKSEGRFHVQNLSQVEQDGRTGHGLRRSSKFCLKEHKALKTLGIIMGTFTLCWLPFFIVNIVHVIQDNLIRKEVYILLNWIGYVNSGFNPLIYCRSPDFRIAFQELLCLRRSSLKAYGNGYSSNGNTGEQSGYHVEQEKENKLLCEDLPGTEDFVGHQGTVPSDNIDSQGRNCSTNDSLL

Substance-K receptor = target: T2, Substance-K receptor (Homo sapiens, UniProt P21452); assay type: cell membranes, CHO, Membrane; conditions: for Ki: read-out: Ki; as to all read-outs here: in other assays of this panel Not Active means under 50% inhibition at 10 µM
T2 sequence (P21452 whole entry): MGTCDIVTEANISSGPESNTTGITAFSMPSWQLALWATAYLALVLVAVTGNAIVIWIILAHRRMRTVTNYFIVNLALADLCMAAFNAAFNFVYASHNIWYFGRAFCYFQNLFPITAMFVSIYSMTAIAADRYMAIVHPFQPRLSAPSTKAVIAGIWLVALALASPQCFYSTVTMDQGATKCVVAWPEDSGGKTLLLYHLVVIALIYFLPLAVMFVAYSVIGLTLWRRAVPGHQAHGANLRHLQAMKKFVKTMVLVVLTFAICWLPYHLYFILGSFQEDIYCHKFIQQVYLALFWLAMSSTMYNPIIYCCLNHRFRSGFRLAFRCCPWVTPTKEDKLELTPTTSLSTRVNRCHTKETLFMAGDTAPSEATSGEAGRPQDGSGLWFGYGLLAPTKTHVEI

[8] = target: 5-hydroxytryptamine receptor 4 (Cavia porcellus, UniProt O70528); assay type: cell membranes, Dunkin-Hartley, Striatum, Membrane; also: in other assays of this panel Not Active means under 50% inhibition at 10 µM
Sequence of 5-hydroxytryptamine receptor 4 (O70528 whole entry): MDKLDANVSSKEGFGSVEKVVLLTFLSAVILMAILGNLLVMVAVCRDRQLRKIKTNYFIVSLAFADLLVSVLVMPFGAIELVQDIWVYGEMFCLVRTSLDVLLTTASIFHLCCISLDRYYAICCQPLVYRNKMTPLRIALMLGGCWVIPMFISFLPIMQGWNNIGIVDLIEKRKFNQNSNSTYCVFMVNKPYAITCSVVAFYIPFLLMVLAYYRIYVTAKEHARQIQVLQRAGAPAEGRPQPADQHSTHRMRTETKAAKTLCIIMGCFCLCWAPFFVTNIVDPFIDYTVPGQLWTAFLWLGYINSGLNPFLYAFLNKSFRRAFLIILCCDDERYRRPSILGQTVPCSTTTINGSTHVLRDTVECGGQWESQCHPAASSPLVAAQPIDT

For `[Cl-].[Cl-].[Zn+2]` [ZINC CHLORIDE], the IC50 (Thromboxane-A synthase) was “Not Active”, the IC50 [1] was “Not Active” and the Ki [1] was “Not Active”. The IC50 [2] was “Not Active”, the Ki [2] was “Not Active” and the IC50 [3] was “Not Active”. The IC50 [4] was “Not Active”, the Ki [4] was “Not Active” and the IC50 [5] was “Not Active”. The Ki [5] was “Not Active”, the IC50 [6] was “Not Active” and the Ki [6] was “Not Active”. For the same compound, the IC50 [7] was “Not Active”, the IC50 (Substance-K receptor; cho) was “Not Active” and the IC50 [8] was “Not Active”.

With `C=CCN1CC[C@]23c4c5ccc(O)c4O[C@H]2C(=O)CC[C@@]3(O)[C@H]1C5` [NALOXONE] the IC50 (Thromboxane-A synthase) was “Not Active”, the IC50 [7] was “Not Active” and the IC50 (Substance-K receptor; cho) was “Not Active”. The IC50 [8] was “Not Active”.

With `CN1C(C(=O)Nc2ccccn2)=C(O)c2sccc2S1(=O)=O` [TENOXICAM] the IC50 (Thromboxane-A synthase) was “Not Active”, the IC50 [1] was “Not Active” and the Ki [1] was “Not Active”. The IC50 [2] was “Not Active”, the Ki [2] was “Not Active” and the IC50 [3] was “Not Active”. The IC50 [4] was “Not Active”, the Ki [4] was “Not Active” and the IC50 [5] was “Not Active”. The Ki [5] was “Not Active”, the IC50 [6] was “Not Active” and the Ki [6] was “Not Active”. For the same compound, the IC50 [7] was “Not Active”, the IC50 (Substance-K receptor; cho) was “Not Active” and the IC50 [8] was “Not Active”.

In the case of `COc1cc(NS(=O)(=O)c2ccc(N)cc2)nc(OC)n1` [SULFADIMETHOXINE], the IC50 (Thromboxane-A synthase) is reported as “Not Active”, the IC50 [1] is reported as “Not Active” and the Ki [1] is reported as “Not Active”. For the same compound, the IC50 [2] was “Not Active”, the Ki [2] was “Not Active” and the IC50 [3] was “Not Active”. For the same compound, the IC50 [4] was “Not Active”, the Ki [4] was “Not Active” and the IC50 [5] was “Not Active”. For the same compound, the Ki [5] was “Not Active”, the IC50 [6] was “Not Active” and the Ki [6] was “Not Active”. For the same compound, the IC50 [7] was “Not Active”, the IC50 (Substance-K receptor; cho) was “Not Active” and the IC50 [8] was “Not Active”.

In the case of `CC(C)NCC(O)COc1cccc2ccccc12` (configuration not stated) [PROPRANOLOL], the IC50 (Thromboxane-A synthase) is reported as “Not Active”, the IC50 [3] is reported as “Not Active” and the IC50 (Substance-K receptor; cho) is reported as “Not Active”. The IC50 [8] was “Not Active”.

In the case of `CC(C)c1nc(CN(C)C(=O)N[C@H](C(=O)N[C@@H](Cc2ccccc2)C[C@H](O)[C@H](Cc2ccccc2)NC(=O)OCc2cncs2)C(C)C)cs1` [RITONAVIR], the IC50 [1] is reported as “Not Active”, the Ki [1] is reported as “Not Active” and the IC50 [2] is reported as “Not Active”. The Ki [2] was “Not Active”, the IC50 [4] was “Not Active” and the Ki [4] was “Not Active”. For the same compound, the IC50 [5] was “Not Active”, the Ki [5] was “Not Active” and the IC50 [6] was “Not Active”. For the same compound, the Ki [6] was “Not Active”, the IC50 [7] was “Not Active” and the IC50 [8] was “Not Active”.

For `Clc1ccc2c(c1)C(N1CCNCC1)=Nc1ccccc1O2` [AMOXAPINE], the IC50 (Thromboxane-A synthase) was “Not Active”, the IC50 [3] was “Not Active” and the IC50 [7] was “Not Active”. The IC50 (Substance-K receptor; cho) was “Not Active” and the IC50 [8] was “Not Active”.

For `CC(=O)CC(c1ccccc1)c1c(O)c2ccccc2oc1=O` (configuration not stated) [WARFARIN], the IC50 (Thromboxane-A synthase) was “Not Active”, the IC50 [1] was “Not Active” and the Ki [1] was “Not Active”. The IC50 [2] was “Not Active”, the Ki [2] was “Not Active” and the IC50 [4] was “Not Active”. For the same compound, the Ki [4] was “Not Active”, the IC50 [5] was “Not Active” and the Ki [5] was “Not Active”. For the same compound, the IC50 [6] was “Not Active”, the Ki [6] was “Not Active” and the IC50 [7] was “Not Active”. The IC50 (Substance-K receptor; cho) was “Not Active” and the IC50 [8] was “Not Active”.

With `CC(C)(C)c1ccc(C(O)CCCN2CCC(C(O)(c3ccccc3)c3ccccc3)CC2)cc1` (configuration not stated) [TERFENADINE] the IC50 (Thromboxane-A synthase) was “Not Active”, the IC50 [1] was “Not Active” and the Ki [1] was “Not Active”. For the same compound, the IC50 [3] was “Not Active”, the IC50 [4] was “Not Active” and the Ki [4] was “Not Active”. For the same compound, the IC50 [5] was “Not Active”, the Ki [5] was “Not Active” and the IC50 [6] was “Not Active”. The Ki [6] was “Not Active”, the IC50 [7] was “Not Active” and the IC50 (Substance-K receptor; read-out: IC50) was 2.68 µM. For the same compound, the Ki (Substance-K receptor) was 0.892 µM and the IC50 [8] was “Not Active”.

In the case of `O=C(c1ccc(OCCN2CCCCC2)cc1)c1c(-c2ccc(O)cc2)sc2cc(O)ccc12` [RALOXIFENE], the IC50 (Thromboxane-A synthase) is reported as “Not Active”, the IC50 [1] is reported as “Not Active” and the Ki [1] is reported as “Not Active”. The IC50 [2] was “Not Active”, the Ki [2] was “Not Active” and the IC50 [4] was “Not Active”. The Ki [4] was “Not Active”, the IC50 [5] was “Not Active” and the Ki [5] was “Not Active”. For the same compound, the IC50 [6] was “Not Active”, the Ki [6] was “Not Active” and the IC50 [7] was “Not Active”. For the same compound, the IC50 (Substance-K receptor; read-out: IC50) was 3.99 µM, the Ki (Substance-K receptor) was 1.33 µM and the IC50 [8] was “Not Active”.

For `COc1cc2c(c(OC)c1OC)-c1ccc(OC)c(=O)cc1[C@@H](NC(C)=O)CC2` [COLCHICINE], the IC50 (Thromboxane-A synthase) was “Not Active”, the IC50 [7] was “Not Active” and the IC50 (Substance-K receptor; cho) was “Not Active”. For the same compound, the IC50 [8] was “Not Active”.
